Columns and labels:
[1] = Stability of aqueous solution: gel formation by visual examination; format: physicochemical; details: room temperature
Experimental: Gel formation was determined by visual examination.

[2] = test system: Serum LH; assay: Efficacy of formulation in vivo: serum LH levels; details: 25 mg/ml in 5% mannitol, 80 μl/kg s.c., ovariectomised Rhesus monkeys
Experimental: Peptide 1 is dissolved in 5% mannitol (25 mg/ml). Three ovariectomised Rhesus monkeys are treated with this solution (80 μl/kg) by subcutaneous injection. Serum LH levels is measured for the following 101 days.

[3] = test system: Serum Testosterone; assay: Efficacy of formulation in vivo: serum testosterone levels; details: 5 mg/ml in 5% mannitol, 100 μl/kg s.c., adult male Beagle dogs
Experimental: Peptide 1 is dissolved in 5% mannitol (5 mg/ml). Three adult male Beagle dogs are treated with this solution (100 μl/kg) by subcutaneous injection. Serum Testosterone levels are measured for the following 42 days. When Testosterone levels started to incline again the experiment was terminated.

Ac-DNal-DCpa-DPal-Ser-Aph(L-Hor)-DAph(CONH2)-Leu-Lys(iPr)-Pro-DAla-NH2 [Peptide 1]
Stability (time to gel formation) ([1]; 0.25 mg/ml (calculated as free base) in water): No gel formation after 6 months | Stability (time to gel formation) ([1]; 1.0 mg/ml (calculated as free base) in water): No gel formation after 6 months | Stability (time to gel formation) ([1]; 5.0 mg/ml (calculated as free base) in water): Gel formation after 4 weeks | Stability (time to gel formation) ([1]; 10.0 mg/ml (calculated as free base) in water): Gel formation after 2 weeks | Stability (time to gel formation) ([1]; 30.0 mg/ml (calculated as free base) in water): Gel formation after 48 hours | Stability (time to gel formation) ([1]; 40.0 mg/ml (calculated as free base) in water): Gel formation after 24 hours | Stability (time to gel formation) ([1]; 60.0 mg/ml (calculated as free base) in water): Gel formation after 8 hours | Stability (time to gel formation) ([1]; 80.0 mg/ml (calculated as free base) in water): Rapid gel formation within 60 minutes | Stability (time to gel formation) ([1]; 120.0 mg/ml (calculated as free base) in water): Rapid gel formation within 30 minutes | Serum LH, mean ± se ([2]; Day 1): 10.5 ± 1.5 ng/mL | Serum LH, mean ± se ([2]; Day 2): 11.8 ± 2.6 ng/mL | Serum LH, mean ± se ([2]; Day 7): 6.7 ± 1.2 ng/mL | Serum LH, mean ± se ([2]; Day 14): 5.8 ± 0.9 ng/mL | Serum LH, mean ± se ([2]; Day 21): 6.6 ± 1.0 ng/mL | Serum LH, mean ± se ([2]; Day 28): 9.4 ± 1.3 ng/mL | Serum LH, mean ± se ([2]; Day 35): 8.8 ± 1.0 ng/mL | Serum LH, mean ± se ([2]; Day 42): 11.8 ± 2.3 ng/mL | Serum LH, mean ± se ([2]; Day 72): 29.5 ± 4.3 ng/mL | Serum LH, mean ± se ([2]; Day 101): 48.9 ± 8.3 ng/mL | Serum LH, mean ± se ([2]; Hour 6): 16.2 ± 1.9 ng/mL | Serum LH, mean ± se ([2]; Time 0): 60.1 ± 7.5 ng/mL | Serum Testosterone, mean ± se ([3]; Day 7): <0.2 nmol/L | Serum Testosterone, mean ± se ([3]; Day 14): <0.2 nmol/L | Serum Testosterone, mean ± se ([3]; Day 21): <0.2 nmol/L | Serum Testosterone, mean ± se ([3]; Day 28): <0.2 nmol/L | Serum Testosterone, mean ± se ([3]; Day 42): 3.3 ± 3 nmol/L | Serum Testosterone, mean ± se ([3]; Hour 4): <0.2 nmol/L | Serum Testosterone, mean ± se ([3]; Time 0): 13.8 ± 5.7 nmol/L

Reference: US20040038903A1, “Gonadotropin releasing hormone antagonists in gel-forming concentration” (priority 2001, published 2004)
